ChEMBL document CHEMBL1201862, “PubChem BioAssay data set” (2004)
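Compound exposure: 48 hours, 5 concentrations, 96-well plates. GI50 = concentration required for 50% inhibition of growth.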 Calls of active or inactive are those of the source. No stated cut-off is given here; in the data, active = GI50 up to about 1.1 µM and inactive = higher.

What was measured:
Assay in all cases: DTP human tumour cell line panel, 48 h
SF-268 = system: SF-268
OVCAR-5 = system: OVCAR-5
CCRF-CEM = system: CCRF-CEM
SF-295 = system: SF-295
OVCAR-3 = system: OVCAR-3
SR = system: SR
HCC 2998 = system: HCC 2998
SK-MEL-28 = system: SK-MEL-28
786-0 = system: 786-0
PC-3 = system: PC-3
A498 = system: A498
NCI-H23 = system: NCI-H23
MCF7 = system: MCF7
OVCAR-4 = system: OVCAR-4
RPMI-8226 = system: RPMI-8226
NCI-H226 = system: NCI-H226
RXF 393 = system: RXF 393
Hs-578T = system: Hs-578T
A549 = system: A549
SNB-75 = system: SNB-75
KM12 = system: KM12
MDA-N = system: MDA-N
IGROV-1 = system: IGROV-1
NCI/ADR-RES = system: NCI/ADR-RES
NCI-H460 = system: NCI-H460
SN12C = system: SN12C
HOP-62 = system: HOP-62
HCT-116 = system: HCT-116
Malme-3M = system: Malme-3M
HOP-92 = system: HOP-92
K562 = system: K562
T47D = system: T47D
SK-OV-3 = system: SK-OV-3
NCI-H522 = system: NCI-H522
HCT-15 = system: HCT-15
MDA-MB-231 = system: MDA-MB-231
SK-MEL-5 = system: SK-MEL-5
OVCAR-8 = system: OVCAR-8
HT-29 = system: HT-29
COLO 205 = system: COLO 205
U-251 = system: U-251
SW-620 = system: SW-620
CAKI-1 = system: CAKI-1
SK-MEL-2 = system: SK-MEL-2
M14 = system: M14
MDA-MB-435 = system: MDA-MB-435
BT-549 = system: BT-549
MOLT-4 = system: MOLT-4
DU-145 = system: DU-145
ACHN = system: ACHN
UO-31 = system: UO-31
UACC-257 = system: UACC-257
UACC-62 = system: UACC-62
TK-10 = system: TK-10
SF-539 = system: SF-539
HL-60 = system: HL-60
LOX IMVI = system: LOX IMVI
SNB-19 = system: SNB-19

COc1ccc(C2CC(c3ccc4ccccc4c3O)=NN2C(C)=O)cc1OC (configuration not stated)
GI50 (SF-268): 61.7 µM (inactive)
GI50 (OVCAR-5): > 100 µM (inactive)
GI50 (CCRF-CEM): 18.8 µM (inactive)
GI50 (SF-295): > 100 µM (inactive)
GI50 (OVCAR-3): > 100 µM (inactive)
GI50 (SR): 19.1 µM (inactive)
GI50 (HCC 2998): > 100 µM (inactive)
GI50 (SK-MEL-28): > 100 µM (inactive)
GI50 (786-0): > 100 µM (inactive)
GI50 (PC-3): > 100 µM (inactive)
GI50 (A498): > 100 µM (inactive)
GI50 (NCI-H23): > 100 µM (inactive)
GI50 (MCF7): > 100 µM (inactive)
GI50 (OVCAR-4): > 100 µM (inactive)
GI50 (RPMI-8226): > 100 µM (inactive)
GI50 (NCI-H226): > 100 µM (inactive)
GI50 (RXF 393): > 100 µM (inactive)
GI50 (Hs-578T): 71.1 µM (inactive)
GI50 (A549): > 100 µM (inactive)
GI50 (SNB-75): > 100 µM (inactive)
GI50 (KM12): > 100 µM (inactive)
GI50 (MDA-N): > 100 µM (inactive)
GI50 (IGROV-1): > 100 µM (inactive)
GI50 (NCI/ADR-RES): > 100 µM (inactive)
GI50 (NCI-H460): > 100 µM (inactive)
GI50 (SN12C): > 100 µM (inactive)
GI50 (HOP-62): > 100 µM (inactive)
GI50 (HCT-116): > 100 µM (inactive)
GI50 (Malme-3M): > 100 µM (inactive)
GI50 (HOP-92): > 100 µM (inactive)
GI50 (K562): 78.5 µM (inactive)
GI50 (T47D): > 100 µM (inactive)
GI50 (SK-OV-3): > 100 µM (inactive)
GI50 (NCI-H522): > 100 µM (inactive)
GI50 (HCT-15): > 100 µM
GI50 (MDA-MB-231): > 100 µM (inactive)
GI50 (SK-MEL-5): > 100 µM (inactive)
GI50 (OVCAR-8): > 100 µM (inactive)
GI50 (HT-29): > 100 µM (inactive)
GI50 (COLO 205): > 100 µM (inactive)
GI50 (U-251): > 100 µM (inactive)
GI50 (SW-620): > 100 µM (inactive)
GI50 (CAKI-1): > 100 µM (inactive)
GI50 (SK-MEL-2): > 100 µM (inactive)
GI50 (M14): > 100 µM (inactive)
GI50 (MDA-MB-435): > 100 µM (inactive)
GI50 (BT-549): > 100 µM (inactive)
GI50 (MOLT-4): 55.1 µM (inactive)
GI50 (DU-145): > 100 µM (inactive)
GI50 (ACHN): > 100 µM (inactive)
GI50 (UO-31): > 100 µM (inactive)
GI50 (UACC-257): > 100 µM (inactive)
GI50 (UACC-62): 75.9 µM (inactive)
GI50 (TK-10): > 100 µM (inactive)
GI50 (SF-539): > 100 µM (inactive)

CN/C(=N\c1ccc(OC)c2ccccc12)SC
GI50 (SF-268): > 10 µM (inactive)
GI50 (OVCAR-5): 2.86 µM (inactive)
GI50 (CCRF-CEM): > 10 µM (inactive)
GI50 (SF-295): 7.43 µM (inactive)
GI50 (HL-60): > 10 µM (inactive)
GI50 (OVCAR-3): > 10 µM (inactive)
GI50 (SR): > 10 µM (inactive)
GI50 (HCC 2998): > 10 µM (inactive)
GI50 (SK-MEL-28): > 10 µM (inactive)
GI50 (786-0): > 10 µM (inactive)
GI50 (PC-3): > 10 µM (inactive)
GI50 (NCI-H23): > 10 µM (inactive)
GI50 (MCF7): > 10 µM (inactive)
GI50 (OVCAR-4): > 10 µM (inactive)
GI50 (RPMI-8226): > 10 µM (inactive)
GI50 (Hs-578T): > 10 µM (inactive)
GI50 (A549): > 10 µM (inactive)
GI50 (SNB-75): > 10 µM (inactive)
GI50 (KM12): > 10 µM (inactive)
GI50 (MDA-N): > 10 µM (inactive)
GI50 (IGROV-1): > 10 µM (inactive)
GI50 (NCI/ADR-RES): > 10 µM (inactive)
GI50 (LOX IMVI): > 10 µM (inactive)
GI50 (SN12C): > 10 µM (inactive)
GI50 (HOP-62): > 10 µM (inactive)
GI50 (HCT-116): > 10 µM (inactive)
GI50 (Malme-3M): > 10 µM (inactive)
GI50 (HOP-92): > 10 µM (inactive)
GI50 (K562): > 10 µM (inactive)
GI50 (T47D): > 10 µM (inactive)
GI50 (SK-OV-3): > 10 µM (inactive)
GI50 (NCI-H522): > 10 µM (inactive)
GI50 (HCT-15): > 10 µM
GI50 (MDA-MB-231): > 10 µM (inactive)
GI50 (SK-MEL-5): > 10 µM (inactive)
GI50 (OVCAR-8): > 10 µM (inactive)
GI50 (HT-29): > 10 µM (inactive)
GI50 (COLO 205): > 10 µM (inactive)
GI50 (U-251): > 10 µM (inactive)
GI50 (SW-620): > 10 µM (inactive)
GI50 (CAKI-1): > 10 µM (inactive)
GI50 (SNB-19): > 10 µM (inactive)
GI50 (M14): > 10 µM (inactive)
GI50 (MDA-MB-435): > 10 µM (inactive)
GI50 (BT-549): > 10 µM (inactive)
GI50 (MOLT-4): > 10 µM (inactive)
GI50 (DU-145): > 10 µM (inactive)
GI50 (ACHN): > 10 µM (inactive)
GI50 (UACC-257): > 10 µM (inactive)
GI50 (UACC-62): > 10 µM (inactive)
GI50 (TK-10): > 10 µM (inactive)
GI50 (SF-539): > 10 µM (inactive)
